According to PMC7577319 (Bioorganic & medicinal chemistry, 2020):

Test system: HeLa cells
Assay: Cytosolic entry of NF-labelled peptides by flow cytometry
Type: cell-based
Conditions: 5 μM, 2 h, inversion of configuration of Arg-9 or Nal-4 of peptide 4

Substance | fold higher cytosolic entry activity relative to peptide 4 [fold]
cyclo(AAFΦRpPRrFAAAQ)-miniPEG-K(NF) [compound 7] | 1.7
cyclo(AAFϕRpPRRFAAAQ)-miniPEG-K(NF) [compound 8] | 2.3
